# Laboratory results from patent US5998397A, “Gallium complexes of 3-Hydroxy-4-pyrones to treat or prevent bone disease” (priority 1998, dated 1999).
# Assays:
# [1] = Solubility in distilled deionized water
# Source text: Under some conditions, water may also be incorporated into the structure.
# [2] = Oral bioavailability study in rabbits (serum gallium by graphite furnace atomic absorption); format: in vivo, New Zealand white rabbits; conditions: oral gavage; for Mean gallium content of rabbit serum: 4 ml per kg, 10 mg elemental gallium per 4 ml, fasted 18 hours, 3 animals
# Method: A test of the oral bioavailability of the 3:1 ethyl maltol:gallium complex in rabbits was conducted. In this test, the complex was given to rabbits and compared to a solution of gallium nitrate. Six female New Zealand white rabbits weighing between 2.68 and 2.91 kg were used, and were not fed for 18 hours before starting the experiment. A suspension of the 3:1 gallium ethyl maltol complex in double distilled water was prepared with a concentration of 10 mg elemental gallium per 4 ml of suspension. […] A small amount of solid sodium carbonate was added to the latter solution to bring the pH up to about 6. Each of the two solutions was given to three rabbits by oral gavage (through a tube inserted through the mouth to the stomach) in the amount of 4 ml per kg of body weight. The stomach tubes were flushed by three ml of water following administration of the solutions.
# Six ml of blood was taken from each, rabbit at 1 hour, 2 hours, 4 hours, 8 hours, and 24 hours following administration of the solutions, and the serum separated and frozen. Control samples of blood were taken 24 hours earlier. The frozen serum samples were then sent to an independent testing laboratory for determination of the gallium contents by graphite furnace atomic absorption analysis. The testing laboratory received numbered serum samples, and never had any knowledge of the experimental conditions used to produce the samples. Due to uncertainties in the analytical procedures for gallium in serum, the relative proportions of gallium in the serum samples are considered more significant than the actual reported concentrations.
# [3] = format: physicochemical
# Method: The complex was studied at two concentrations in double distilled deionized water: […]. The pH was adjusted by adding either 1N HCl or 1N Na2 CO3. The stability of the complex was determined using ultraviolet spectroscopy over the region 200-450 nm at 25° C. […] An isobesic point occurs over much of the pH range at about 290 nm. In the very dilute solutions (2.5×10^-6 M), the neutral 3:1 complex appears to be stable from about pH 4.5 to 9.5. For the less dilute solutions (1.0×10^-2 M), the determination was more difficult due to the very high absorbance.
# rabbits = conditions: rabbit, in vivo; cited from earlier work
structure (smiles),measurement,setting,value
"CCc1occc(=O)c1[O][Ga]([O]c1c(CC)occc1=O)[O]c1c(CC)occc1=O [Gallium Ethyl Maltol, 3:1 complex of ethyl maltol and gallium]",Solubility,"[1]; distilled deionized water, 23° C.",about 5 millimolar
same,Mean gallium content of rabbit serum,[2]; 1 hour,90 ng/mL
same,Mean gallium content of rabbit serum,[2]; 2 hours,274 ng/mL
same,Mean gallium content of rabbit serum,[2]; 4 hours,260 ng/mL
same,Mean gallium content of rabbit serum,[2]; 8 hours,212 ng/mL
same,Mean gallium content of rabbit serum,[2]; 24 hours,84 ng/mL
same,Oral absorption compared with gallium nitrate,"[2]; rabbits, equal volume and gallium concentration, stomach acid not counteracted",absorbed in significantly higher amounts than the gallium nitrate suspension
Cc1occc(=O)c1[O-].Cc1occc(=O)c1[O-].Cc1occc(=O)c1[O-].[Ga+3] [Gallium Maltol],Solubility,[1]; water,about 24 millimolar
same,pH stability region of the neutral 3:1 complex (in words),[3],"very similar to that of the highly dilute solution, possibly slightly wider"
Cc1occc(=O)c1[O][Al]([O]c1c(C)occc1=O)[O]c1c(C)occc1=O [aluminum maltol complex],Neurotoxicity,rabbits,highly neurotoxic
"O=[N+]([O-])[O-].O=[N+]([O-])[O-].O=[N+]([O-])[O-].[Ga+3] [gallium nitrate, reference compound]",Mean gallium content of rabbit serum,[2]; 1 hour,51 ng/mL
same,Mean gallium content of rabbit serum,[2]; 2 hours,99 ng/mL
same,Mean gallium content of rabbit serum,[2]; 4 hours,118 ng/mL
same,Mean gallium content of rabbit serum,[2]; 8 hours,103 ng/mL
same,Mean gallium content of rabbit serum,[2]; 24 hours,64 ng/mL
